This note sets out measurements from article PMC3827627 (ACS chemical biology, 2013).

For assay [1], the target named is PKA-RIα holoenzyme (Bos taurus, UniProt P00514). The format is biochemical. The note with it: for EC50: read-out: RIα EC50, LiReC assay, 6 nM PKA holoenzyme, 3 nM TR-IP20.
Assay [2] addresses RIIβ-S112A holoenzyme (Rattus norvegicus, UniProt P12369, S112A). The format is biochemical. The note with it: LiReC assay; for EC50: read-out: RIIβ EC50, RIIβ-S112A holoenzyme, 6 nM PKA holoenzyme, 3 nM TR-IP20.

Chain of PKA-RIα holoenzyme (P00514 92-380): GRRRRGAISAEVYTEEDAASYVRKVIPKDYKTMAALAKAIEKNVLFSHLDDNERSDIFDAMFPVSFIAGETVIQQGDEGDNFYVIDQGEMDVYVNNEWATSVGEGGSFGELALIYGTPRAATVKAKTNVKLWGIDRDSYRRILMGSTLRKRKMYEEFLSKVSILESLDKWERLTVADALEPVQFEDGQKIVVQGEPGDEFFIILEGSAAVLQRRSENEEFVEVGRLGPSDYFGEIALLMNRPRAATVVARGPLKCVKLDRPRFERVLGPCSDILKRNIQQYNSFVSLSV
Chain of RIIβ-S112A holoenzyme (P12369 108-402 S112A): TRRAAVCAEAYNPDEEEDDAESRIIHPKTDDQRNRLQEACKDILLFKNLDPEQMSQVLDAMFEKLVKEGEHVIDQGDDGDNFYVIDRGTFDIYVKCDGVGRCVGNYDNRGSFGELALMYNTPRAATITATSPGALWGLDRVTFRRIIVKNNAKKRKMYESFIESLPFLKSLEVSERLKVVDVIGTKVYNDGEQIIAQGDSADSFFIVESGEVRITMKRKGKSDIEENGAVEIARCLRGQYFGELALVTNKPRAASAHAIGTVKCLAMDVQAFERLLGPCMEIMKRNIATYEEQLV

For the compound `CCCC(=O)Nc1ncnc2c1ncn2[C@@H]1O[C@@H]2COP(=O)(O)O[C@H]2[C@H]1O` [6-MB cAMP], in assay [1], the EC50 stood at 140 nM. In addition, in assay [2], the “activation of RIIβ holoenzymes (in words)” value was “potent RIIβ activators” and the 50% effective concentration (EC50) is 39 nM.
For the compound `Nc1ncnc2c1nc(N1CCCCC1)n2[C@@H]1O[C@@H]2COP(=O)(O)O[C@H]2[C@H]1O` [8-PIP cAMP], the figures for the EC50 in assay [1] and in assay [2] were 1020 nM and 3950 nM, respectively.
As for `Nc1ncnc2c1nc(N1CCCCC1)n2[C@@H]1O[C@@H]2COP(O)(=S)O[C@@H]2C1O` (stereo partly shown) [Sp-8-PIP cAMP], the EC50 in assay [1] was 5050 nM; in assay [2] it was 2960 nM.
On to `Nc1ncnc2c1nc(Sc1ccc(Cl)cc1)n2[C@@H]1O[C@@H]2COP(=O)(O)O[C@H]2[C@H]1O` [8-CPT cAMP], for which the values for the concentration giving a half-maximal response (EC50) in assay [1] and in assay [2] were 33 nM and 149 nM, respectively.
For `Nc1ncnc2c1nc(Br)n2[C@@H]1O[C@@H]2COP(O)(=S)O[C@H]2[C@H]1O` (stereo partly shown) [Sp-8-B cAMP], in that order: 1360 nM and 435 nM.
Regarding `Nc1ncnc2c1nc(Br)n2[C@@H]1O[C@@H]2COP(=O)(O)O[C@H]2[C@H]1O` [8-Br cAMP], the EC50 in assay [1] was found to be 81 nM; in assay [2], 184 nM.
As to `CCCN(CCC)c1ncnc2c1ncn2[C@@H]1O[C@@H]2COP(=O)(O)O[C@H]2[C@H]1O` [HE33], the “fold increase in EC50 relative to cAMP” value in assay [1] (RIα holoenzyme, HE33 vs cAMP) was found to be 10 fold. The EC50 is 414 nM in assay [1] and 45 nM in assay [2].
As for `CCCCCCNc1nc2c(N)ncnc2n1[C@@H]1O[C@@H]2COP(=O)(O)OC2[C@@H]1O` (stereo partly shown) [8-HA cAMP], the figures for the EC50 in assay [1] and in assay [2] were 358 nM and 1150 nM, respectively.
For `Nc1ncnc2c1nc(Sc1ccc(Cl)cc1)n2[C@@H]1O[C@@H]2CO[P@](=O)(S)O[C@H]2[C@H]1O` [Sp-8-CPT cAMP], in that order: 342 nM and 96 nM.
`Nc1nc(Cl)nc2c1ncn2[C@@H]1O[C@@H]2COP(=O)(O)OC2[C@@H]1O` (stereo partly shown) [2-Cl cAMP]: the concentration giving a half-maximal response (EC50) was found to be 42 nM in assay [1] and 45 nM in assay [2].
For `Nc1ncnc2c1ncn2[C@@H]1O[C@@H]2COP(O)(=S)O[C@H]2[C@H]1O` (stereo partly shown) [Sp cAMP], the EC50 was 1590 nM in assay [1] and 2270 nM in assay [2].
For `O=P1(O)OC[C@H]2O[C@@H](n3cnc4c(Nc5ccccc5)ncnc43)[C@@H](O)C2O1` (stereo partly shown) [6-Phe cAMP] the same measures were 92 nM and 20 nM.
For `CC(C)(C)NC(=O)Nc1ncnc2c1ncn2[C@@H]1O[C@@H]2COP(=O)(O)O[C@H]2[C@H]1O` [6-MBC cAMP] the same measures were 289 nM and 59 nM.
As for `O=[P@]1(S)OC[C@H]2O[C@@H](n3cnc4cc(Cl)c(Cl)cc43)[C@H](O)[C@@H]2O1` [5,6 DCl BIMPS], the EC50 amounted to 270 nM in assay [1] and 129 nM in assay [2].
Turning to 2-OMe cAMP, the EC50 in assay [1] was determined as 5670 nM.
Consider `CNc1nc2c(N)ncnc2n1[C@@H]1O[C@@H]2COP(=O)(O)O[C@H]2[C@H]1O` [8-MA cAMP], for which the EC50 in assay [1] turned out to be 102 nM; in assay [2] it was 223 nM.
For `O=C(Nc1ncnc2c1ncn2[C@@H]1O[C@@H]2COP(=O)(O)OC2C1O)c1ccccc1` (stereo in doubt) [6-Bnz cAMP], in that order: 170 nM and 35 nM.
For `O=P1(S)OCC2OC(n3cnc4cc(Cl)c(Cl)cc43)C(O)C2O1` (stereo not shown) [Sp-5,6-DCl BIMPS], in that order: 344 nM and 83 nM.
Turning to `Nc1nc2c(ncn2[C@@H]2O[C@@H]3COP(=O)(O)O[C@H]3[C@H]2O)c(=O)[nH]1` [cGMP], the EC50 in assay [1] is 15000 nM; in assay [2], 5080 nM.
For `NCCCCCCNc1nc2c(N)ncnc2n1[C@@H]1O[C@@H]2COP(=O)(O)O[C@H]2[C@H]1O` [8-AHA cAMP] the same measures were 116 nM and 197 nM.
On to `Nc1ncnc2c1nc(Cl)n2[C@@H]1O[C@@H]2COP(=O)(O)O[C@H]2[C@H]1O` [8-Cl cAMP], for which the EC50 worked out at 58 nM in assay [1] and 275 nM in assay [2].
